From EP2208725A1, “Novel specific inhibitors of ubiquitin specific protease 7, the pharmaceutical compositions thereof and their therapeutic applications” (Hybrigenics S.A., priority 2009, dated 2010)

Columns and labels:
Caspase 3 = molecular target: T1, Caspase 3 (Homo sapiens, UniProt P42574); assay: Caspase 3 activity assay (Ac-DEVD-AMC); type: biochemical; conditions: 250 nM Ac-DEVD-AMC, 1.6 nM enzyme; compounds tested from 200 µM to 91 nM; unit inferred; read-out: Inhibition of cysteine protease activities: Casp3
T1 sequence (P42574 29-175 limits assumed): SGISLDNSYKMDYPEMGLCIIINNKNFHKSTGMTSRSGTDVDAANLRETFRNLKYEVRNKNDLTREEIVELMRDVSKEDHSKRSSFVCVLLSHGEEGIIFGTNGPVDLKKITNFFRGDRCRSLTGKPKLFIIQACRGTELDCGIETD
T1 sequence (P42574 176-277 limits assumed): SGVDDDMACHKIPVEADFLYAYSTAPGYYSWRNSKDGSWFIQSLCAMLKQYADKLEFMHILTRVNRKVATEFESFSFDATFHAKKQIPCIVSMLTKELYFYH
Procedure: Caspase 3 was diluted in Caspase 3 buffer (100 mM Hepes pH 7.5; 10% sucrose; 0.1% CHAPS). Compounds stocks (100 mM) were stored at -20°C in DMSO. Compounds were tested at different concentrations: from 200 µM to 91 nM. Reactions were performed as duplicates in Black LJL 96 well plates (HE microplates; Molecular Devices; 20 µl final reaction volume). The substrate concentration for caspase 3 specificity assay was 250 nM (Ac-DEVD-AMC; Promega). The concentration of the enzyme (Caspase 3) in specificity assays was 1.6 nM. The concentrations were determined in order to perform specificity assays under initial velocities at fixed substrate concentration. Compounds were pre-incubated with enzymes for 30 minutes at 25°C. Reactions were initiated by addition of substrate to the plates containing the enzymes (+/- compounds) diluted in assay buffer. Reactions were incubated for 60 minutes at 37°C. Reactions were stopped by adding acetic acid (100 mM final). Readings were performed on a Pherastar Fluorescent Reader (BMG). λ Emission 380 nm; λ Excitation = 460 nm. Data (mean values +/- standard deviation) were analyzed as % of control (no compound) and plotted as percentage versus the Log of the compound concentration using GraphPad (Prism). Data were fitted to a sigmoidal model (variable slope).

UCH-L1 = molecular target: T2, UCH-L1 (Homo sapiens, UniProt P09936); assay: UCH-L1 activity assay (Ub-AMC); type: biochemical; conditions: 400 nM Ub-AMC, 2.5 nM enzyme; compounds tested from 200 µM to 91 nM; unit inferred; read-out: Inhibition of cysteine protease activities: Uch-L1
T2 sequence (P09936 1-223): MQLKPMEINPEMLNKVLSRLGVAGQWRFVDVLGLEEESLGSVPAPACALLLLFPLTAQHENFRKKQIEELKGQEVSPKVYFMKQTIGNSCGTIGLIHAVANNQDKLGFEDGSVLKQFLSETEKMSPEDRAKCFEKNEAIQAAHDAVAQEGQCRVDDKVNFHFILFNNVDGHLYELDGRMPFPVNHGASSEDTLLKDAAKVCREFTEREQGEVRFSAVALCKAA
Procedure: UCH-L1 was diluted in USP buffer (50 mM Tris HCl; 0.5 mM EDTA; 5 mM DTT; 0.01% Triton X-100; Bovine Serum Albumin 0.05 mg.ml^-1 pH7.6). Compounds stocks (100 mM) were stored at -20°C in DMSO. Compounds were tested at different concentrations: from 200 µM to 91 nM. Reactions were performed as duplicates in Black LJL 96 well plates (HE microplates; Molecular Devices; 20 µl final reaction volume). The substrate concentration for UCH-L1 was 400 nM Ub-AMC (Boston Biochem). The concentration of the enzyme (UCH-L1) in specificity assays was 2.5 nM. The concentrations were determined in order to perform specificity assays under initial velocities at fixed substrate concentration. Compounds were pre-incubated with enzymes for 30 minutes at 25°C. Reactions were initiated by addition of substrate to the plates containing the enzymes (+/- compounds) diluted in assay buffer. Reactions were incubated for 60 minutes at 37°C. Reactions were stopped by adding acetic acid (100 mM final). Readings were performed on a Pherastar Fluorescent Reader (BMG). λ […]. Data (mean values +/- standard deviation) were analyzed as % of control (no compound) and plotted as percentage versus the Log of the compound concentration using GraphPad (Prism). Data were fitted to a sigmoidal model (variable slope).

Structure (SMILES) | IC50 (Caspase 3) | IC50 (UCH-L1)
CC(=O)C1=C(O)C(=O)N(CCc2ccc(Br)cc2)C1c1ccc(Br)cc1 (centres unmarked) [Example 26, 4-acetyl-5-(4-bromo-phenyl)-1-[2-(4-bromo-phenyl)-ethyl]-3-hydroxy-1,5-dihydro-pyrrol-2-one] | > 200 µM | > 200 µM
COc1cccc(CCN2C(=O)C(O)=C(C(C)=O)C2c2ccc(Br)cc2)c1 (centres unmarked) [Example 30, 4-acetyl-5-(4-bromo-phenyl)-3-hydroxy-1-[2-(3-methoxyphenyl)-ethyl]-1,5-dihydro-pyrrol-2-one] | > 200 µM | > 200 µM
COc1ccc(CCN2C(=O)C(O)=C(C(C)=O)C2c2ccc(Br)cc2)cc1 (centres unmarked) [Example 32, 4-acetyl-5-(4-bromo-phenyl)-3-hydroxy-1-[2-(4-methoxyphenyl)-ethyl]-1,5-dihydro-pyrrol-2-one] | > 200 µM | > 200 µM
CCOc1ccc(CCN2C(=O)C(O)=C(C(C)=O)C2c2ccc(Br)cc2)cc1 (centres unmarked) [Example 34, 4-acetyl-5-(4-bromo-phenyl)-3-hydroxy-1-[2-(4-ethoxy-phenyl)-ethyl]-1,5-dihydro-pyrrol-2-one] | > 200 µM | > 200 µM
CC(=O)C1=C(O)C(=O)N(CCc2ccccc2)C1c1ccc2c(c1)OCO2 (centres unmarked) [Example 37, 4-acetyl-5-benzo[1,3]dioxol-5-yl-3-hydroxy-1-phenethyl-1,5-dihydro-pyrrol-2-one] | > 200 µM | > 200 µM
CC(=O)C1=C(O)C(=O)N(CCc2ccccc2)C1c1ccc(Br)c(Br)c1 (centres unmarked) [Example 41, 4-acetyl-5-(3,4-dibromo-phenyl)-3-hydroxy-1-phenethyl-1,5-dihydro-pyrrol-2-one] | > 200 µM | > 200 µM
CC(=O)C1=C(O)C(=O)N(CCc2ccccc2)C1c1cccnc1Cl (centres unmarked) [Example 42, 4-acetyl-5-(2-chloro-pyridin-3-yl)-3-hydroxy-1-phenethyl-1,5-dihydro-pyrrol-2-one] | > 200 µM | > 200 µM

Next, values leading:

IC50 (Caspase 3) | IC50 (UCH-L1) | Structure (SMILES)
> 200 µM | > 200 µM | CC(=O)C1=C(O)C(=O)N(CCc2ccc(Cl)cc2)C1c1ccc(Br)cc1 (centres unmarked) [Example 25, 4-acetyl-5-(4-bromo-phenyl)-1-[2-(4-chloro-phenyl)-ethyl]-3-hydroxy-1,5-dihydro-pyrrol-2-one]
> 200 µM | > 200 µM | CC(=O)C1=C(O)C(=O)N(CCc2ccc(Cl)c(Cl)c2)C1c1ccc(Br)cc1 (centres unmarked) [Example 28, 4-acetyl-5-(4-bromo-phenyl)-1-[2-(3,4-dichloro-phenyl)-ethyl]-3-hydroxy-1,5-dihydro-pyrrol-2-one]
> 200 µM | > 200 µM | CC(=O)C1=C(O)C(=O)N(CCc2ccc(F)cc2)C1c1ccc(Br)cc1 (centres unmarked) [Example 33, 4-acetyl-5-(4-bromo-phenyl)-3-hydroxy-1-[2-(4-fluorophenyl)-ethyl]-1,5-dihydro-pyrrol-2-one]
> 200 µM | > 200 µM | CC(=O)C1=C(O)C(=O)N(CCc2ccc(Br)cc2)C1c1ccc(Cl)cc1 (centres unmarked) [Example 45, 4-Acetyl-5-(4-chlorophenyl)-1-[2-(4-bromophenyl)-ethyl]-3-hydroxy-1,5-dihydro-pyrrol-2-one]
> 200 µM | > 200 µM | CC(=O)C1=C(O)C(=O)N(CCc2ccc(Cl)cc2)C1c1ccc(Cl)cc1 (centres unmarked) [Example 46, 4-Acetyl-5-(4-chlorophenyl)-1-[2-(4-chlorophenyl)-ethyl]-3-hydroxy-1,5-dihydro-pyrrol-2-one]
> 200 µM | > 200 µM | CC(=O)C1=C(O)C(=O)N(CCc2ccc(Cl)cc2Cl)C1c1ccc(Br)cc1 (centres unmarked) [Example 47, 4-Acetyl-5-(4-bromophenyl)-1-[2-(2,4-dichlorophenyl)-ethyl]-3-hydroxy-1,5-dihydro-pyrrol-2-one]
